The target in data set [1] is T1, ATP-dependent translocase ABCB1 (Homo sapiens, UniProt P08183). In words: Inhibition of P-glycoprotein-mediated drug efflux in human NCI/ADR-RES cells assessed as calcein AM accumulation after 30 mins by fluorescence spectrophotometry. Type of data set: cell-based. Particulars: 0.5 h.
Data set [2] has as its target T1, ATP-dependent translocase ABCB1. In words: Inhibition of P-glycoprotein-mediated drug efflux in human NCI/ADR-RES cells assessed as paclitaxel accumulation after 30 mins by HPLC. Particulars: 0.5 h. It is filed as cell-based.
For data set [3], the system named is NCI/ADR-RES. In words: Potentiation of vinblastine-induced cytotoxicity against P-gp expressing human NCI/ADR-RES cells assessed as reduction of vinblastine CC50 at 10 uM after 3 days by MTT assay. Type of data set: functional. In general terms: Tetrazolium assays rely on reduction of a dye to a coloured formazan, in cell work by metabolically active cells.
Data set [4] has as its system NCI/ADR-RES. In words: Potentiation of paclitaxel-induced cytotoxicity against P-gp expressing human NCI/ADR-RES cells assessed as reduction of paclitaxel CC50 at 10 uM after 3 days by MTT assay. It is filed as functional.
Data set [5] deals with NCI/ADR-RES. Put plainly: Cytotoxicity against human NCI/ADR-RES cells at 10 uM after 3 days by MTT assay. Type of data set: functional, cell-based.

The source made the active and inactive calls. The calls are words filed in the database; no cut-off is given here.

The values that follow come from ChEMBL document CHEMBL1154264, “Evaluation of the flavonoid oroxylin A as an inhibitor of P-glycoprotein-mediated cellular efflux” (J Nat Prod, 2009).

T1 sequence (P08183 whole entry): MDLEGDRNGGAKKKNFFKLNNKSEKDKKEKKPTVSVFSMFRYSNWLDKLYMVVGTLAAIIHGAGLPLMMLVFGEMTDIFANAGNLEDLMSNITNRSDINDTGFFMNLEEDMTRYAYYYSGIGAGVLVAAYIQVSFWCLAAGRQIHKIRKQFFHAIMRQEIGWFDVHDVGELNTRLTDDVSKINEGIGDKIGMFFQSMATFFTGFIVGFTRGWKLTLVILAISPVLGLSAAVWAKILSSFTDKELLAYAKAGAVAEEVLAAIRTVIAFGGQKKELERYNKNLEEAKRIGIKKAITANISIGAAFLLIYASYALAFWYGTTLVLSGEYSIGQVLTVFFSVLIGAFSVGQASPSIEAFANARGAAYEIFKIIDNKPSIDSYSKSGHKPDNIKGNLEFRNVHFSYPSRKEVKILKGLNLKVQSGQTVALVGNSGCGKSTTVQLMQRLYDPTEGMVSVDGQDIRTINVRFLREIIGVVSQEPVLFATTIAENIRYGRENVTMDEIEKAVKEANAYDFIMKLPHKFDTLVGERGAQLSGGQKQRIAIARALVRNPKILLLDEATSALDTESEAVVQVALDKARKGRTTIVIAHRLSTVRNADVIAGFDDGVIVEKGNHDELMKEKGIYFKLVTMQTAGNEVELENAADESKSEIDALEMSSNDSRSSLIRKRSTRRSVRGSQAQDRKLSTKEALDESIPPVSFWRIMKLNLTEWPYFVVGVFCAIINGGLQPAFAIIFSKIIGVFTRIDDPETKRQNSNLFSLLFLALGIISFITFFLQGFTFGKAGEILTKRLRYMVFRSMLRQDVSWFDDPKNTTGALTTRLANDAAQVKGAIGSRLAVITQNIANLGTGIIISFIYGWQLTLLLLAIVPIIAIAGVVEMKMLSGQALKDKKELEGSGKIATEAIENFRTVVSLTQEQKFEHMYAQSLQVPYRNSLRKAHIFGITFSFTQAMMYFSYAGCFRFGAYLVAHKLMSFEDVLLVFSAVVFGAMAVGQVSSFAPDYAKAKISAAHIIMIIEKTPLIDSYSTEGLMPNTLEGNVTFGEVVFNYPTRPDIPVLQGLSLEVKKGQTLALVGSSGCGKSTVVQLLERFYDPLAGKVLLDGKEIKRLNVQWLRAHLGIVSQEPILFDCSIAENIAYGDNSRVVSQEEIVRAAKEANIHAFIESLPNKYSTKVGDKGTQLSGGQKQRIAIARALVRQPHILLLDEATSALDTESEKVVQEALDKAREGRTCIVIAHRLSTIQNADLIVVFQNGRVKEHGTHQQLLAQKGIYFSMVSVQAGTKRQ

On to `COc1c(O)cc2oc(-c3ccccc3)cc(=O)c2c1O` [OROXYLIN A], for which the “inhibition (INH)” value in data set [1] and in data set [2] was “Dose-dependent effect” in each case. For the same molecule, the “fold change (FC)” value in data set [3] and in data set [4] was 5 throughout. In data set [5], the outcome was inactive.
